Experimental data published in PubChem BioAssay AID2060623 (Molecular Pharmacology Branch, DTP, NCI, 2025).

Tested on: 227483-062-R1-J1-PDC complex spheroids with HUVEC/MSC, viability
Assay: Anticancer human tumor 227483-062-R1-J1-PDC patient-derived pancreatic carcinoma cell line growth inhibition [CLK]
Conditions: for IC50: curve of first compound; for viability, T/C: stronger effect = lower value
Procedure, shortened: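 Multi-cell-type spheroids combined patient-derived tumor cells with HUVEC endothelial cells and human mesenchymal stem cells. Paired agents were dosed in half-log steps down from about clinical Cmax, or from 10 microM where Cmax was unknown.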

[1] = second compound 0.0316 µM, first compound 0.0316 µM
[2] = second compound 0.0316 µM, first compound 0.1 µM
[3] = second compound 0.0316 µM, first compound 0.316 µM
[4] = second compound 0.0316 µM, first compound 1 µM
[5] = second compound 0.0316 µM, first compound 3.16 µM
[6] = second compound 0.0316 µM, first compound 10 µM
[7] = second compound 0.1 µM, first compound 0.0316 µM
[8] = second compound 0.1 µM, first compound 0.1 µM
[9] = second compound 0.1 µM, first compound 0.316 µM
[10] = second compound 0.1 µM, first compound 1 µM
[11] = second compound 0.1 µM, first compound 3.16 µM
[12] = second compound 0.1 µM, first compound 10 µM
[13] = second compound 0.316 µM, first compound 0.0316 µM
[14] = second compound 0.316 µM, first compound 0.1 µM
[15] = second compound 0.316 µM, first compound 0.316 µM
[16] = second compound 0.316 µM, first compound 1 µM
[17] = second compound 0.316 µM, first compound 3.16 µM
[18] = second compound 0.316 µM, first compound 10 µM
[19] = second compound 1 µM, first compound 0.0316 µM
[20] = second compound 1 µM, first compound 0.1 µM
[21] = second compound 1 µM, first compound 0.316 µM
[22] = second compound 1 µM, first compound 1 µM
[23] = second compound 1 µM, first compound 3.16 µM
[24] = second compound 1 µM, first compound 10 µM
[25] = second compound 3.16 µM, first compound 0.0316 µM
[26] = second compound 3.16 µM, first compound 0.1 µM
[27] = second compound 3.16 µM, first compound 0.316 µM
[28] = second compound 3.16 µM, first compound 1 µM
[29] = second compound 3.16 µM, first compound 3.16 µM
[30] = second compound 3.16 µM, first compound 10 µM
[31] = second compound 10 µM, first compound 0.0316 µM
[32] = second compound 10 µM, first compound 0.1 µM
[33] = second compound 10 µM, first compound 0.316 µM
[34] = second compound 10 µM, first compound 1 µM
[35] = second compound 10 µM, first compound 3.16 µM
[36] = second compound 10 µM, first compound 10 µM
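Also: spheroids exposed to compounds for seven days before readout.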
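For viability, T/C in this document: percent of DMSO vehicle control luminescence as 100% viability.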

C=CC(=O)N1CCN(c2nc(=O)n(-c3c(C)ccnc3C(C)C)c3nc(-c4c(O)cccc4F)c(F)cc23)C(C)C1 (stereo unspecified) + CNC(=O)c1ccc(Nc2nc(OC3CCCC3)c3c(-c4ccc5nc(C)oc5c4)c[nH]c3n2)c(OC)c1
IC50 (second compound 0.0316 µM): > 10 µM | IC50 (second compound 0.1 µM): > 10 µM | IC50 (second compound 0.316 µM): > 10 µM | IC50 (second compound 1 µM): > 10 µM | IC50 (second compound 3.16 µM): 1.7 µM | IC50 (second compound 10 µM): < 0.0316 µM | viability, T/C [1]: 107% | viability, T/C [2]: 92% | viability, T/C [3]: 135% | viability, T/C [4]: 103% | viability, T/C [5]: 104% | viability, T/C [6]: 108% | viability, T/C [7]: 110% | viability, T/C [8]: 101% | viability, T/C [9]: 111% | viability, T/C [10]: 118% | viability, T/C [11]: 121% | viability, T/C [12]: 107% | viability, T/C [13]: 111% | viability, T/C [14]: 87.9% | viability, T/C [15]: 108% | viability, T/C [16]: 104% | viability, T/C [17]: 124% | viability, T/C [18]: 98.6% | viability, T/C [19]: 70.3% | viability, T/C [20]: 57.6% | viability, T/C [21]: 57.9% | viability, T/C [22]: 63.5% | viability, T/C [23]: 65.8% | viability, T/C [24]: 52.3% | viability, T/C [25]: 45.4% | viability, T/C [26]: 63.2% | viability, T/C [27]: 50.2% | viability, T/C [28]: 51.6% | viability, T/C [29]: 47.9% | viability, T/C [30]: 26.6% | viability, T/C [31]: 37.7% | viability, T/C [32]: 35.5% | viability, T/C [33]: 39.5% | viability, T/C [34]: 44.5% | viability, T/C [35]: 36% | viability, T/C [36]: 18.6%

CCCS(=O)(=O)Nc1ccc(F)c(C(=O)c2c[nH]c3ncc(-c4ccc(Cl)cc4)cc23)c1F + CNC(=O)c1ccc(Nc2nc(OC3CCCC3)c3c(-c4ccc5nc(C)oc5c4)c[nH]c3n2)c(OC)c1
IC50 (second compound 0.0316 µM): > 10 µM | IC50 (second compound 0.1 µM): > 10 µM | IC50 (second compound 0.316 µM): 9.22 µM | IC50 (second compound 1 µM): 7.06 µM | IC50 (second compound 3.16 µM): 0.241 µM | IC50 (second compound 10 µM): < 0.0316 µM | viability, T/C [1]: 87.8% | viability, T/C [2]: 94% | viability, T/C [3]: 96.5% | viability, T/C [4]: 101% | viability, T/C [5]: 105% | viability, T/C [6]: 66.2% | viability, T/C [7]: 102% | viability, T/C [8]: 101% | viability, T/C [9]: 107% | viability, T/C [10]: 108% | viability, T/C [11]: 114% | viability, T/C [12]: 56.2% | viability, T/C [13]: 78.2% | viability, T/C [14]: 93.2% | viability, T/C [15]: 96% | viability, T/C [16]: 118% | viability, T/C [17]: 126% | viability, T/C [18]: 46% | viability, T/C [19]: 64.7% | viability, T/C [20]: 80% | viability, T/C [21]: 84.1% | viability, T/C [22]: 85.7% | viability, T/C [23]: 85.8% | viability, T/C [24]: 36.9% | viability, T/C [25]: 53.1% | viability, T/C [26]: 52.6% | viability, T/C [27]: 49.6% | viability, T/C [28]: 36.1% | viability, T/C [29]: 28.1% | viability, T/C [30]: 24.7% | viability, T/C [31]: 39% | viability, T/C [32]: 40.2% | viability, T/C [33]: 45.1% | viability, T/C [34]: 35.5% | viability, T/C [35]: 33.5% | viability, T/C [36]: 24.3%

COC1C=CCC(C)C(C)S(=O)(=O)NC(=O)c2ccc3c(c2)N(CC2CCC21)CC1(CCCc2cc(Cl)ccc21)CO3 (stereo unspecified) + CNC(=O)c1ccc(Nc2nc(OC3CCCC3)c3c(-c4ccc5nc(C)oc5c4)c[nH]c3n2)c(OC)c1
IC50 (second compound 0.0316 µM): 6.02 µM | IC50 (second compound 0.1 µM): 3.74 µM | IC50 (second compound 0.316 µM): 0.897 µM | IC50 (second compound 1 µM): 0.207 µM | IC50 (second compound 3.16 µM): 0.0462 µM | IC50 (second compound 10 µM): < 0.0316 µM | viability, T/C [1]: 84% | viability, T/C [2]: 94.8% | viability, T/C [3]: 106% | viability, T/C [4]: 81.1% | viability, T/C [5]: 88.3% | viability, T/C [6]: 20.1% | viability, T/C [7]: 78.6% | viability, T/C [8]: 88.7% | viability, T/C [9]: 77.4% | viability, T/C [10]: 64.7% | viability, T/C [11]: 59.7% | viability, T/C [12]: 17.8% | viability, T/C [13]: 94% | viability, T/C [14]: 76.3% | viability, T/C [15]: 76.6% | viability, T/C [16]: 43.2% | viability, T/C [17]: 30% | viability, T/C [18]: 14.6% | viability, T/C [19]: 75% | viability, T/C [20]: 58.7% | viability, T/C [21]: 45.9% | viability, T/C [22]: 28% | viability, T/C [23]: 16.7% | viability, T/C [24]: 10.8% | viability, T/C [25]: 54% | viability, T/C [26]: 41.2% | viability, T/C [27]: 33% | viability, T/C [28]: 17.7% | viability, T/C [29]: 9.9% | viability, T/C [30]: 8.25% | viability, T/C [31]: 38.7% | viability, T/C [32]: 34.4% | viability, T/C [33]: 25.8% | viability, T/C [34]: 14.4% | viability, T/C [35]: 9.05% | viability, T/C [36]: 9.22%
